Measurements from ChEMBL document CHEMBL1921747, “Novel cytotoxic chalcones from Litsea rubescens and Litsea pedunculata” (Bioorg Med Chem Lett, 2011).
Converted amounts (≈) assume the structure as drawn.

Columns and labels:
[1] = system: A-431; assay: Cytotoxicity against human A431 cells after 48 hrs by MTT assay; type: functional, cell-based; conditions: A-431, 48 h
[2] = system: HL-60; assay: Cytotoxicity against human HL60 cells after 48 hrs by MTT assay; type: functional, cell-based; conditions: HL-60, 48 h
[3] = system: HepG2; assay: Cytotoxicity against human HepG2 cells after 48 hrs by MTT assay; type: functional, cell-based; conditions: HepG2, 48 h
[4] = system: HL-60; assay: Ratio of cisplatin IC50 to compound IC50 for human HL60 cells; type: functional

Compound	IC50 [1] [µg/mL]	IC50 [2] [µg/mL]	IC50 [3] [µg/mL]	Ratio IC50 [4]
COc1cc(O)c(C(=O)/C=C/c2ccccc2)c2c1OC(C)O2 (configuration not stated) [LITSEAONE B]	13.9 (≈ 44.5 µM)	10.2 (≈ 32.7 µM)	21.5 (≈ 68.8 µM)	
COC1=CC(=O)C2(OC2C)C(O)=C1C(=O)/C=C/c1ccccc1 (configuration not stated) [LITSEAONE A]	11.1 (≈ 35.5 µM)	6.1 (≈ 19.5 µM)	23 (≈ 73.6 µM)	2.1
